# According to US12109266B2, “Modulating gabarap to modulate immunogenic cell death” (Dana-Farber Cancer Institute, Inc., priority 2020, dated 2024):
# “Also recorded” adds a separate entry of the source.
# Assays:
# [1] = system: T cells; experiment: Analysis of T cell priming (co-culture of MM cells, DCs and T cells); format: cell-based, human
# Protocol: DCs were generated from freshly isolated PBMCs as previously described. T cells were negatively selected from CD14− PBMCs using the Pan T cell Isolation Kit (Miltenyi Biotec) and frozen until immature DCs were generated. Either untreated or BTZ-treated MM cells were co-cultured with DCs and T cells for 5 days. T cells and DCs were also cultured in the absence of MM cells and in the presence of BTZ to assess the direct effects of drug on T cells and DCs. After 5 day co-culture, cells were treated with Dynabeads™ Human T-Activator CD3/CD28 (Cat. #11131D, ThermoFisher Scientific) 5 h before analysis, and with GolgiStop™ and GolgiPlug™ (Cat. #554724 and Cat. #555029, BD Biosciences) 3 h before analysis, following the manufacturer's instructions. Cells were then collected and T cell populations were analyzed by CyTOF analysis.
# DCs were generated from healthy donors PBMCs as described above (“Generation of Mo-DCs” section). T cells were negatively selected from CD14-PBMCs from the same donors using the Pan T cell Isolation Kit (Miltenyi Biotec) and frozen until immature DCs were generated. Either untreated or BTZ-treated multiple myeloma cells were co-cultured with DCs and T cells for 5 days. T cells and DCs were similarly cultured in the absence of multiple myeloma cells and in the presence of BTZ. Before analysis, cells were treated with Dynabeads™ Human T-Activator CD3/CD28 (#11131D, ThermoFisher Scientific), and with GolgiStop™ and GolgiPlug™ (#554724 and #555029, BD Biosciences). T cell populations were analyzed using 10 color flow-cytometry with the following Abs: CD3-BV605 (#317322), CD8-FITC (#344704), CD4-PerCP/Cyanine5.5 (#317428), CD45RO-APC (#304210), CCR7-PE (#353204), CD69-PE/Cyanine7 (#310912), and IL-2-BV785 (#500348), IFNγ-BV421 (#502532) (BioLegend); and PD1-Super Bright 702 (#67-998-582). LIVE/DEAD™ Fixable Aqua dead Cell Stain(#L34966) (ThermoFisher Scientific) was also added to discriminate dead cells. Intracellular staining for IL-2 and IFNγ was performed using the Fixation/Permeabilization Solution Kit (BD Biosciences).
# When T cell experiments were performed using patient multiple myeloma cells, the entire population of autologous BMMCs was cultured in presence and absence of BTZ and analyzed after 5 days. Data from experiments performed using multiple myeloma cell lines were analyzed with a bioinformatic semiautomated pipeline (Perez et al. (2020) Blood; 136(2):199-209). Briefly, flow cytometry files were entered in a custom R script which includes different bioinformatic algorithms and has been designed to reduce the impact of technical and instrumental differences, minimize the variability of manual analysis, and reveal full cellular diversity based on automatic semi-supervised clustering. Data from primary MM patients were manually analyzed by using Infinicyt 2.0 (Cytognos, Salamanca, Spain).
# [2] = system: naive T cells; experiment: Analysis of naive T cell proliferation; format: cell-based, human; settings: 5 day co-culture with BTZ-treated AMO1 or NCI-H929 cells and DCs
# Protocol: DCs were generated from healthy donors PBMCs as described above (“Generation of Mo-DCs” section). Naïve T cells were negatively selected from CD14-PBMCs from the same donors using the Naive Pan T Cell Isolation Kit (Miltenyi Biotec) and frozen. When DCs were generated, either untreated or BTZ-treated multiple myeloma cells were co-cultured with DCs and naïve T cells labeled with CellTrace™ Violet Cell Proliferation Kit (ThermoFisher Scientific) for 5 days. Naïve T cells were also cultured in the absence of multiple myeloma cells and in the presence of phytohemagglutinin (PHA) (20 ug/ml) as positive control. Before analysis, cells were stained with: CD8-FITC (#344704), CD4-PerCP/Cyanine5.5 (#317428) (BioLegend); and LIVE/DEAD™ Fixable Aqua dead Cell Stain (#L34966) (ThermoFisher Scientific). Proliferating CD4 and CD8 T cell subsets were then analyzed using the FlowJo software (Becton, Dickinson & Company).
# [3] = system: 5TGM1 cells; experiment: Ex vivo IFN-gamma ELISPOT on splenocytes; format: in vivo, mouse; settings: splenocytes of BTZ-treated, rechallenged mice
# Protocol: 5×10^5 5TGM1 WT or calrKO were treated with BTZ (7.5 nM) in vitro for 16 h. C57BL/KaLwRijHsd mice (n=8 per group) were then either vaccinated in the left flank with dying 5TGM1 WT, 5TGM1calrKO, 5TGM1 gabarapKO or not vaccinated. After 1 week, 1×10^6 WT 5TGM1 cells were injected in the contralateral flank and tumor growth was monitored over time. In a parallel experiment under the same conditions, spleens from mice were harvested 10 days after rechallenge and ELISPOT assay was performed to assess T cell specific reactivity against MM cells (Translational Immunogenomics Laboratory, DFCI).
# C57BL/KaLwRijHsd mice bearing 5TGM1 WT tumors were treated with BTZ as above. 2 weeks after observation of tumor regression, treated (n=5) as well as naïve mice (n=5), were rechallenged with viable 1×10^6 5TGM1 WT cells, and tumor growth was monitored over time. In a parallel experiment, spleens were harvested 2 weeks after tumor rechallenge from both groups to test T cell specific reactivity against multiple myeloma cell by ELISPOT assay (Translational Immunogenomics Laboratory, DFCI).
# [4] = system: cGAS/STING pathway; experiment: Western blot of cGAS/STING pathway; format: cell-based, human
# Protocol: Cell lysis was performed in RIPA buffer (Boston Bio Products) supplemented with Halt protease and phosphatase inhibitor cocktail (ThermoFisher Scientific). SDS-PAGE was performed on NuPage Bis-Tris gels (ThermoFisher Scientific) using MOPS or MES running buffer. Gels were dry transferred onto 0.45 μm nitrocellulose membranes using the iBlot® Dry Blotting System (ThermoFisher Scientific). The following Abs were purchased from Cell Signaling Technology: EIF2A (#5324), p-EIF2A (#3398), ATF4 (#11815), CHOP (2895), CALR (#12238), cGAS (#15102), TBK1 (#3504), pTBK1 (#5483), pIRF3 (#29047), STING (#13647). GAPDH (#2118) and B-ACTIN (#4970) were used as loading controls.
smiles,measurement,setting,value
"CC(C)C[C@H](NC(=O)[C@H](Cc1ccccc1)NC(=O)c1cnccn1)B(O)O [BTZ, bortezomib]","T cell subsets (CD4+ EM, total CD8+, CD8+ EM)",[1]; BTZ-treated AMO1 STING^KO vs WT,no significant increase of CD4+EM; total CD8+; and CD8+EM cells
same,"T cell subsets (CD4+ EM, total CD8+, CD8+ EM, CD8+ TEMRA)","[1]; BTZ-treated AMO1 or H929 cells with DCs and T cells, 5 days",significant increase of CD4+ effector memory (EM); total CD8+; CD8+EM and CD8+ terminally differentiated EM (TEMRA) cells
same,T cell subsets / T cell maturation,"[1]; DCs and T cells with BTZ 5 nM in the absence of MM cells, 5 days",not observed by treating DCs and T cells with BTZ in the absence of multiple myeloma cells; also recorded: does not induce T cell maturation
same,T cell phenotype / priming (CyTOF),[1]; DCs primed by BTZ-treated AMO1 GABARAP^KO,led to T cell exhaustion; also recorded: GABARAP^KO blocks T cell priming by DCs after BTZ treatment
same,CD4+ T cell phenotype (CyTOF),[1]; DCs primed by BTZ-treated AMO1 WT,switched CD4+ T cells towards an effector memory function
same,CD4+ and CD8+ T cell populations,"[1]; autologous BMMCs from MM patients, BTZ 5 nM, 5 days",confirmed the phenotypic changes in both CD4+ and CD8+ T cell populations
same,proliferation of CD4+ and CD8+ naive T cells,[2],increased proliferation of both CD4+ and CD8+ naïve T cells; also recorded: promotes proliferation of CD4+ and CD8+ naïve T cells
same,T cell reactivity against MM cells (IFN-gamma ELISPOT),[3],robust immune response against multiple myeloma cells; also recorded: generates a robust immune response against MM cells
same,"cGAS/STING pathway activation (cGAS, pTBK1, pIRF3)","[4]; AMO1 (BTZ 5-10 nM, 16 h) and NCI-H929 WT",induces accumulation of the cytosolic DNA sensor cGAS; also recorded: induces IFN-I signaling and promotes T cell activation via cGAS/STING pathway
same,cGAS level,"[4]; AMO1 STING^KO, BTZ 5 nM",significantly accumulated cGAS
same,p-TBK1 downstream signaling,"[4]; AMO1 STING^KO, BTZ 5 nM",blocked activation of downstream signaling including p-TBK1
